# In US6468476B1, “Methods for using-co-regulated genesets to enhance detection and classification of gene expression patterns” (Rosetta Inpharmatics, Inc., priority 1998, dated 2002):
# Test system: genesets (calcineurin-mediated, Gcn4-mediated)
# Test: Response profiles projected onto genesets defined by cluster analysis of 34 experiments
# Type: cell-based, Saccharomyces cerevisiae
# Details: HU at 3.1 mM
# Method: Yeast (Saccharomyces cerevisiae, Strain YPH499, see, Sikorski and Hieter, 1989, A system of shuttle vectors and yeast host strains designated for efficient manipulation of DNA in Saccharomyces cerevisiae, Genetics 122:19-27) cells were grown in YAPD at 30° C. to an OD600 of 1.0 (±0.2), and total RNA prepared by breaking cells in phenol/chloroform and 0.1% SDS by standard procedures (Ausubel et al., 1995, Current Protocols in Molecular Biology, Greene Publishing and Wiley-Interscience, New York, Ch. 13). Poly(A)^+ RNA was selected by affinity chromatography on oligo-dT cellulose (New England Biolabs) essentially as described in Sambrook et al. (Molecular Cloning—A Laboratory Manual (2nd Ed.), Vol. 1, Cold Spring Harbor Laboratory, Cold Spring Harbor, N.Y., 1989). First strand cDNA synthesis was carried out with 2 μg poly(A)^+ RNA and SuperScript™ II reverse transcriptase (Gibco-BRL) according to the manufacturer's instructions with the following modifications. […]
# Fluorescently-labeled cDNAs (2-6 μg) are resuspended in 4×SSC plus 1 μg/μl tRNA as carrier and filtered using […] filters (Millipore, Bedford, Mass.). […] Microarrays are scanned with a fluorescence laser-scanning device as previously described (Schena et al., 1995, Science 270:467-470; Schena et al., 1995, Proc. Natl. Acad. Sci. USA 93:[…]) and the results (including the positions of perturbations) are recorded. […]
smiles,measurement,value
"NC(=O)NO [HU, Hydroxyurea]",Projected profile,very weak
